Assay results taken from patent EP0980241B1 (Pfizer Products Inc., priority 1997, dated 1999).
≈ marks a conversion by molar mass, not a printed value. Where a name gives a salt, the structure may show the parent alone.

Columns and labels:
[1] = physchem
[2] = Precipitation studies: sertraline base solution in vehicle added to 0.1 N HCl or phosphate buffered saline pH 5.8; format: physicochemical
Protocol: Solution (a) is a simulated gastric fluid, and solution (b) is a simulated intestinal fluid.
PEG-400 is miscible with aqueous media, while Capmul® -MCM and safflower oil are not. One milliliter of the test solution was added to 10 mL of (a) 0.1 N HCl solution and (b) phosphate buffered saline (PBS) pH 5.8 and was stirred vigorously.
• Mobile phase: per liter of mobile phase: 270 mL of tetrahydrofuran, 230 mL of methanol and 400 mL of buffer. The buffer consisted of 25 mM triethylamine phosphate. It was prepared by adding 1.7 mL of phosphoric acid and 3.5 mL of tirethylamine to 1 liter of water.

[3] = Dilution of PEG-400 or polysorbate-80 solution of sertraline base into 0.9% NaCl (precipitation test); format: physicochemical; settings: for Observed Concentration after Dilution in Saline, after 15 min / Observed Concentration after Dilution in Saline, after 2 hr: 1 ml into 15 ml 0.9% NaCl pH 4.2
Protocol: One ml of this test solution was added to 15 ml normal saline (0.9% NaCl, pH 4.2), and was stirred vigorously. […]

[4] = not given; remark: listed apart in the source
[5] = in vivo
[6] = known oral immediate-release dosage forms; cited from earlier work
[7] = Chloride-induced gelling of saturated aqueous sertraline salt solutions; format: physicochemical
[8] = PEG-400, 50 mgA/ml in vehicle, expected 3.1
[9] = PEG-400, 100 mgA/ml in vehicle, expected 6.25
[10] = Polysorbate-80, 50 mgA/ml in vehicle, expected 3.1
[11] = Polysorbate-80, 100 mgA/ml in vehicle, expected 6.25

CN[C@H]1CC[C@@H](c2ccc(Cl)c(Cl)c2)c2ccccc21 [Free base, sertraline free base]
solubility ([1]; polysorbate-80, organic solvent or mixture): ~102 mg/mL (≈ 333 mM)
Concentration of sertraline in non-aqueous layer ([2]; Capmul MCM 50 mgA/mL, 1 mL into 10 mL 0.1 N HCl, 15 minutes): 44 mgA/ mL
Concentration of sertraline in aqueous layer ([2]; Capmul MCM 50 mgA/mL, 1 mL into 10 mL 0.1 N HCl, 15 minutes, expected 5.00): 0.38 mgA/ mL
Concentration of sertraline in non-aqueous layer ([2]; Capmul MCM 50 mgA/mL, 1 mL into 10 mL 0.1 N HCl, 120 minutes): 44.2 mgA/ mL
Concentration of sertraline in aqueous layer ([2]; Capmul MCM 50 mgA/mL, 1 mL into 10 mL 0.1 N HCl, 120 minutes, expected 5.00): 0.31 mgA/ mL
Concentration of sertraline in non-aqueous layer ([2]; Capmul MCM 50 mgA/mL, 1 mL into 10 mL Phosphate buffered saline pH 5.8, 15 minutes): 48 mgA/ mL
Concentration of sertraline in aqueous layer ([2]; Capmul MCM 50 mgA/mL, 1 mL into 10 mL Phosphate buffered saline pH 5.8, 15 minutes, expected 5.00): 0.18 mgA/ mL
Concentration of sertraline in non-aqueous layer ([2]; Capmul MCM 50 mgA/mL, 1 mL into 10 mL Phosphate buffered saline pH 5.8, 120 minutes): 48.6 mgA/ mL
Concentration of sertraline in aqueous layer ([2]; Capmul MCM 50 mgA/mL, 1 mL into 10 mL Phosphate buffered saline pH 5.8, 120 minutes, expected 5.00): 0.16 mgA/ mL
precipitation of sertraline ([2]; Capmul-MCM vehicle): essentially no precipitation
portion of sertraline that remains in solution ([2]; Capmul-MCM vehicle, 0.1 N HCl or phosphate buffered saline): > 95 % of added amount
Concentration of sertraline in aqueous layer ([2]; PEG 400 50 mgA/mL, 1 mL into 10 mL 0.1 N HCl, 15 minutes, expected 4.55): 0.6 mgA/ mL
Concentration of sertraline in aqueous layer ([2]; PEG 400 50 mgA/mL, 1 mL into 10 mL 0.1 N HCl, 120 minutes, expected 4.55): 0.35 mgA/ mL
Concentration of sertraline in aqueous layer ([2]; PEG 400 50 mgA/mL, 1 mL into 10 mL Phosphate buffered saline pH 5.8, 15 minutes, expected 4.55): 0.16 mgA/ mL
Concentration of sertraline in aqueous layer ([2]; PEG 400 50 mgA/mL, 1 mL into 10 mL Phosphate buffered saline pH 5.8, 120 minutes, expected 4.55): 0.12 mgA/ mL
precipitation of sertraline ([2]; PEG 400 solution into either 0.1 N HCl or phosphate buffered saline): precipitation of a large proportion of sertraline
Concentration of sertraline in non-aqueous layer ([2]; Safflower oil 50 mgA/mL, 1 mL into 10 mL 0.1 N HCl, 15 minutes): 4.8 mgA/ mL
Concentration of sertraline in aqueous layer ([2]; Safflower oil 50 mgA/mL, 1 mL into 10 mL 0.1 N HCl, 15 minutes, expected 5.00): 0.48 mgA/ mL
Concentration of sertraline in non-aqueous layer ([2]; Safflower oil 50 mgA/mL, 1 mL into 10 mL 0.1 N HCl, 120 minutes): 3.2 mgA/ mL
Concentration of sertraline in aqueous layer ([2]; Safflower oil 50 mgA/mL, 1 mL into 10 mL 0.1 N HCl, 120 minutes, expected 5.00): 0.48 mgA/ mL
Concentration of sertraline in non-aqueous layer ([2]; Safflower oil 50 mgA/mL, 1 mL into 10 mL Phosphate buffered saline pH 5.8, 15 minutes): 45 mgA/ mL
Concentration of sertraline in aqueous layer ([2]; Safflower oil 50 mgA/mL, 1 mL into 10 mL Phosphate buffered saline pH 5.8, 15 minutes, expected 5.00): 0.19 mgA/ mL
Concentration of sertraline in non-aqueous layer ([2]; Safflower oil 50 mgA/mL, 1 mL into 10 mL Phosphate buffered saline pH 5.8, 120 minutes): 44.6 mgA/ mL
Concentration of sertraline in aqueous layer ([2]; Safflower oil 50 mgA/mL, 1 mL into 10 mL Phosphate buffered saline pH 5.8, 120 minutes, expected 5.00): 0.19 mgA/ mL
precipitation of sertraline ([2]; safflower oil solution added to phosphate buffered saline): little or no precipitation
precipitation of sertraline ([2]; safflower oil vehicle, in the presence of 0.1N HCl): 81%
Observed Concentration after Dilution in Saline, after 15 min [3, 8]: 0.9 mgA/ml
Observed Concentration after Dilution in Saline, after 2 hr [3, 8]: 2.1 mgA/ml
Observed Concentration after Dilution in Saline, after 15 min [3, 9]: 0.7 mgA/ml
Observed Concentration after Dilution in Saline, after 2 hr [3, 9]: 1.8 mgA/ml
Precipitation upon addition to a NaCl solution ([3]; PEG-400 solution): a portion of the sertraline precipitates
Observed Concentration after Dilution in Saline, after 15 min [3, 10]: 3.1 mgA/ml
Observed Concentration after Dilution in Saline, after 2 hr [3, 10]: 3.1 mgA/ml
Observed Concentration after Dilution in Saline, after 15 min [3, 11]: 6.25 mgA/ml
Observed Concentration after Dilution in Saline, after 2 hr [3, 11]: 6.25 mgA/ml
Precipitation upon addition to a NaCl solution ([3]; Polysorbate-80 solution): no precipitation occurs
Equilibrium solubility in Capmul-®MCM (capmul-mcm): >50 mgA/ml
Equilibrium solubility in Captex® 200 (captex 200): >50 mgA/ml
Equilibrium solubility in Migloyol® 810 (miglyol 810): >50 mgA/ml
Equilibrium solubility in Oleic acid (oleic acid): >50 mgA/ml
Equilibrium solubility in Olive oil: >50 mgA/ml
Equilibrium solubility in Safflower oil: >50 mgA/ml

CN[C@H]1CC[C@@H](c2ccc(Cl)c(Cl)c2)c2ccccc21 [Hydrochloride, sertraline hydrochloride]
solubility ([1]; capmul-mcm, organic solvent or mixture, Solubility in Capmul-MCM): ~45 mg/mL
solubility ([1]; safflower oil, organic solvent or mixture, Solubility in Safflower Oil): < 9 mg/mL
Equilibrium solubility in Olive oil: <0.01 (below detection limit) mgA/ml
Equilibrium solubility in Safflower oil: <0.01 (below detection limit) mgA/ml
Solubility in Polysorbate-80 [4]: <14 mgA/ml

CN[C@H]1CC[C@@H](c2ccc(Cl)c(Cl)c2)c2ccccc21 [sertraline]
half-time for absorption [5]: less than 27.7 minutes
Tmax [6]: 6 to 7 h

sertraline acetate
appearance of saturated solution at physiological chloride concentrations [7]: thick pasty solid which does not flow

sertraline lactate
appearance of saturated solution at physiological chloride concentrations [7]: thick pasty solid which does not flow
